Calls of active or inactive are those of the source. No cut-off for these calls is given here.
Assays:
physchem [1] = assay: physchem
in vivo [2] = conditions: mouse, po
Description: Half life in po dosed mouse

in vivo [3] = conditions: mouse, po; remark: listed apart in the source
Description: Oral bioavailability in mouse

[4] = Ratio of free drug concentration in brain to free drug concentration in plasma in C57BL/6 mouse at 80 umol/kg, po at […]; type: ADME, organism-based
Beta-secretase 1 [5] = target: Beta-secretase 1 (Mus musculus, UniProt P56818)
Description: Inhibition of BACE1-mediated amyloid beta 40 release in C57/BL6 mouse primary cortical neurons after overnight incubation by ELISA

in vitro [6] = conditions: rat, hepatocytes
physchem [7] = assay: physchem; remark: listed apart in the source
Description: Lipophilicity, log D of the compound by RP-HPLC analysis

[8] = Fraction unbound in C57BL/6 mouse plasma at 80 umol/kg, po; type: ADME, organism-based
Mus musculus [9] = assay: Antialzheimer activity in C57BL/6 mouse assessed as reduction in amyloid beta 42 level in brain at 80 umol/kg, po; type: functional, organism-based
Mus musculus [10] = assay: Antialzheimer activity in C57BL/6 mouse assessed as reduction in sAPPbeta level in brain at 80 umol/kg, po; type: functional, organism-based
Brain [11] = assay: Free drug concentration in C57BL/6 mouse brain at 80 umol/kg, po at […]; type: ADME, organism-based; conditions: in vivo
Mus musculus [12] = assay: Antialzheimer activity in C57BL/6 mouse assessed as reduction in amyloid beta 40 level in brain at 80 umol/kg, po at […] by ELISA relative to control; type: functional; parameters: scale not given: the % may be the effect or the level left
Plasma [13] = assay: Free drug concentration in C57BL/6 mouse plasma at 80 umol/kg, po at […]; type: ADME, organism-based; conditions: in vivo
[14] = Fraction unbound in C57BL/6 mouse brain at 80 umol/kg, po; type: ADME, organism-based
Beta-secretase 2 = target: T1, Beta-secretase 2 (Homo sapiens, UniProt Q9Y5Z0)
T1 sequence (Q9Y5Z0 whole entry): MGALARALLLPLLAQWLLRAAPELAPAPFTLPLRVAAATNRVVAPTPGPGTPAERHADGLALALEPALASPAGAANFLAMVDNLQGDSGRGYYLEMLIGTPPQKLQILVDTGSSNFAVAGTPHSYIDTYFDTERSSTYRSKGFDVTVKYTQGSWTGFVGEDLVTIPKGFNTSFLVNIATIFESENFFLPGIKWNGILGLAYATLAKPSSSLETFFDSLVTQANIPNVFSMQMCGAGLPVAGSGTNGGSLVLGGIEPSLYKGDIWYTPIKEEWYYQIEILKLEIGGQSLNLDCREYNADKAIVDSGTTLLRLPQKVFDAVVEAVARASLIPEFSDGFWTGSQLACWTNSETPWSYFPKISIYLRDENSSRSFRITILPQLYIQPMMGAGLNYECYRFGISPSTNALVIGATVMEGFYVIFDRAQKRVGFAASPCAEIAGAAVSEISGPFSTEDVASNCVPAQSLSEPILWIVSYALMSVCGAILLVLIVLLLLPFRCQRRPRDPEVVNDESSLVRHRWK

Beta-secretase 1 [15] = target: T2, Beta-secretase 1 (Homo sapiens, UniProt P56817); type: cell-based, SH-SY5Y
T2 sequence (P56817 whole entry): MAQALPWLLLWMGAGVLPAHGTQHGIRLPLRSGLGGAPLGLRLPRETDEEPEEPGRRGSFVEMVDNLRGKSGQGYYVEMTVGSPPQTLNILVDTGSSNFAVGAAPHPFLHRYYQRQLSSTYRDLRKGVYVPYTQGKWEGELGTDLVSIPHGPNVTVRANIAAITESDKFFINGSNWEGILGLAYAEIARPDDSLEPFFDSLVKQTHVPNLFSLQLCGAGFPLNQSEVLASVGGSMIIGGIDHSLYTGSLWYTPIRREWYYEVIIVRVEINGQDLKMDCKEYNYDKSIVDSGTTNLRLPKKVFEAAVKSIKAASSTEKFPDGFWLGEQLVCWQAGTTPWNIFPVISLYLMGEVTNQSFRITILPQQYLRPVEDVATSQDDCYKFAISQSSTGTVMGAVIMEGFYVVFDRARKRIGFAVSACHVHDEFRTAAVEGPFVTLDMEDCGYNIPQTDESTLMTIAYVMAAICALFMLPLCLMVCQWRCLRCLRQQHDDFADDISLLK

Beta-secretase 1 [16] = target: T2, Beta-secretase 1
in vitro [17] = conditions: human, Caco-2
Description: Apparent permeability from apical to basal side of human Caco2 cells at 10 uM after 60 mins by LC/MS analysis

Mus musculus [18] = species: Mus musculus; assay: Antialzheimer activity in C57BL/6 mouse assessed as unbound brain concentration required for 20% reduction in amyloid beta 40 level in brain at 1.5 by ELISA; type: functional
Mus musculus [19] = assay: Antialzheimer activity in C57BL/6 mouse assessed as reduction in sAPPbeta level in brain at 300 umol/kg, po; type: functional, organism-based
Plasma [20] = assay: Free drug concentration in C57BL/6 mouse plasma at 300 umol/kg, po at […]; type: ADME, organism-based; conditions: in vivo
Mus musculus [21] = assay: Antialzheimer activity in C57BL/6 mouse assessed as reduction in amyloid beta 40 level in brain at 300 umol/kg, po at […] by ELISA relative to control; type: functional; parameters: scale not given: the % may be the effect or the level left
Mus musculus [22] = assay: Antialzheimer activity in C57BL/6 mouse assessed as reduction in amyloid beta 42 level in brain at 300 umol/kg, po; type: functional, organism-based
Brain [23] = assay: Free drug concentration in C57BL/6 mouse brain at 300 umol/kg, po at […]; type: ADME, organism-based; conditions: in vivo
[24] = Fraction unbound in C57BL/6 mouse plasma at 300 umol/kg, po; type: ADME, organism-based
[25] = Fraction unbound in C57BL/6 mouse brain at 300 umol/kg, po; type: ADME, organism-based
[26] = target: Voltage-gated inwardly rectifying potassium channel KCNH2 (Homo sapiens, UniProt Q12809)
Voltage-gated inwardly rectifying potassium channel KCNH2, sequence (Q12809 whole entry): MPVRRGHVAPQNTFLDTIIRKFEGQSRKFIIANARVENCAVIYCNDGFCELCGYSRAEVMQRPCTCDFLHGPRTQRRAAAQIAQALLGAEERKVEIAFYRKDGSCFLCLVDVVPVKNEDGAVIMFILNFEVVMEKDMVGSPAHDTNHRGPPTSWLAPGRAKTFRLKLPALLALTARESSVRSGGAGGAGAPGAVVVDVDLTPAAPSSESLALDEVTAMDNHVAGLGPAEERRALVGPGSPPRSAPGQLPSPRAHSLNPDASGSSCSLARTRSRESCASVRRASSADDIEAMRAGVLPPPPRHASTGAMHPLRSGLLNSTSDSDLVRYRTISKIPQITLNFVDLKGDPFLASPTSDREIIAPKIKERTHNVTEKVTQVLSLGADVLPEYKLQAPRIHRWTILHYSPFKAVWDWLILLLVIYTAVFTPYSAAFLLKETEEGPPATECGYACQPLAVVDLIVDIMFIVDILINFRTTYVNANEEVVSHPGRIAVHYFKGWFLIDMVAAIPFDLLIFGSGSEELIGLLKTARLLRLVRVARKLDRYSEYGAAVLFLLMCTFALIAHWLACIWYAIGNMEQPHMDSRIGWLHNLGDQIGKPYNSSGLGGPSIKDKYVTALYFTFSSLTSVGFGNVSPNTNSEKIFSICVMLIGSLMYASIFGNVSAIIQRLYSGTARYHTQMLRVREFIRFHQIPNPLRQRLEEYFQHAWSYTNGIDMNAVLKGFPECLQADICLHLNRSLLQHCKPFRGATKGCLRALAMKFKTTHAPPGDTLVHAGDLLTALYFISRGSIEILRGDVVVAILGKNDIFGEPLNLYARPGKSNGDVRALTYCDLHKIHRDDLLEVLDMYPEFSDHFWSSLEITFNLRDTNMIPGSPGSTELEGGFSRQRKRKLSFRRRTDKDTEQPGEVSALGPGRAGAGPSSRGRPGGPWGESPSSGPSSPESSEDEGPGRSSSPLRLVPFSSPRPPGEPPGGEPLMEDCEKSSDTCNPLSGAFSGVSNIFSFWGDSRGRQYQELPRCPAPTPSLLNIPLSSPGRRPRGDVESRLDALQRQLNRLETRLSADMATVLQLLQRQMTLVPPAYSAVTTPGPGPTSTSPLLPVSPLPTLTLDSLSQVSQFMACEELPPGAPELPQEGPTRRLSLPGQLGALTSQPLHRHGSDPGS
Description: Inhibition of human ERG expressed in CHO cells by IonWorks assay

in vitro [27] = conditions: human, Caco-2; remark: listed apart in the source
Description: Efflux ratio of apparent permeability from basal to apical to apical to basal side of human Caco2 cells at 10 uM after 60 mins by LC/MS analysis

Beta-secretase 1 (Mus musculus, UniProt P56818), sequence (P56818 whole entry): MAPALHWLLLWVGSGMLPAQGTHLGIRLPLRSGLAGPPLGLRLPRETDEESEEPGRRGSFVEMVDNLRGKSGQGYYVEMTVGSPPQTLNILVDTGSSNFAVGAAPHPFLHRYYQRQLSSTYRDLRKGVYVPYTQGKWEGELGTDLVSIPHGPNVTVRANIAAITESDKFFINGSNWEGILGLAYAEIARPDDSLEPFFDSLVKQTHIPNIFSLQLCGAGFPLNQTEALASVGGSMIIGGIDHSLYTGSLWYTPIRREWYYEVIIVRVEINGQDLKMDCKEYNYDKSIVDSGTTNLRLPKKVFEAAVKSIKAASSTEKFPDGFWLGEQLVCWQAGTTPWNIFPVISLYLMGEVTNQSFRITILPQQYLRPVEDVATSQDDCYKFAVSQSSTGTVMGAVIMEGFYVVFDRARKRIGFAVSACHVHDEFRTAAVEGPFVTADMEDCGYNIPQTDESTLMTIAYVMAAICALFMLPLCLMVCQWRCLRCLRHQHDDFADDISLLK

Structure (SMILES): NC1=N[C@@](c2cccc(-c3cncnc3)c2)(c2ccnc(C(F)F)c2)c2cccc(F)c21 [AZD-3839]
- pKa (physchem [1]): 7.1
- half-life (in vivo [2]): 1.5 h
- bioavailability (in vivo [3]): 73%
- K(p,uu,brain) [4]: 0.7
- IC50 (Beta-secretase 1 [5]): 51 nM
- hepatocyte CLint (in vitro [6]): 20.9 µL/min/1e6 cells
- logD (physchem [7]): 2
- fraction unbound [8]: 0.027
- Activity (Mus musculus [9]): Active
- Activity (Mus musculus [10]): Active
- Drug uptake(free) (Brain [11]): 119 nM
- Activity (Mus musculus [12]): 31%
- Cp(f) (Plasma [13]): 170 nM
- fraction unbound [14]: 0.079
- Ki (Beta-secretase 2): 370 nM

Structure (SMILES): Cc1cc(C2(c3cccc(-c4cncnc4)c3)N=C(N)c3c(F)cccc32)cc(C)n1 (stereo not given)
- IC50 (Beta-secretase 1 [15]): 10.7 nM
- IC50 (Beta-secretase 1 [16]): 1380 nM

Structure (SMILES): COc1c(C)cc(C2(c3cccc(-c4cncnc4)c3)N=C(N)c3c(F)cccc32)cc1C#N (stereo not given)
- IC50 (Beta-secretase 1 [15]): 3.4 nM
- hepatocyte CLint (in vitro [6]): 30.9 µL/min/1e6 cells
- logD (physchem [7]): 3.1
- Papp A→B at 1 h, 10 µM (in vitro [17]): 23 ×10⁻⁶ cm/s

Structure (SMILES): CCn1cc(C2(c3cccc(-c4cncnc4)c3)N=C(N)c3c(F)cccc32)cc(C)c1=O (stereo not given)
- IC50 (Beta-secretase 1 [15]): 9.09 nM
- IC50 (Beta-secretase 1 [16]): 15.5 nM

Structure (SMILES): NC1=N[C@](c2ccncc2)(c2cccc(-c3cncnc3)c2)c2cccc(F)c21
- IC50 (Beta-secretase 1 [15]): 8.25 nM
- IC50 (Beta-secretase 1 [5]): 68 nM
- IC50 (Beta-secretase 1 [16]): 124 nM
- Ki (Beta-secretase 2): 790 nM

Structure (SMILES): NC1=NC(c2ccncc2)(c2cccc(-c3cncnc3)c2)c2cccc(F)c21 (racemic)
- IC50 (Beta-secretase 1 [15]): 11.4 nM
- IC50 (Beta-secretase 1 [16]): 158 nM

Structure (SMILES): NC1=NC(c2ccncc2)(c2cccc(-c3cncc(F)c3)c2)c2cccc(F)c21 (stereo not given)
- IC50 (Beta-secretase 1 [15]): 25.6 nM
- IC50 (Beta-secretase 1 [16]): 137 nM

Structure (SMILES): CC#Cc1cncc(-c2cccc(C3(c4ccnc(C(F)F)c4)N=C(N)c4c(F)cccc43)c2)c1 (stereo not given)
- IC50 (Beta-secretase 1 [15]): 2.97 nM
- IC50 (Beta-secretase 1 [16]): 6.49 nM

Structure (SMILES): COc1c(C)cc(C2(c3cccc(-c4cncnc4)c3)N=C(N)c3c(F)cccc32)nc1C (stereo not given)
- IC50 (Beta-secretase 1 [15]): 2.92 nM
- IC50 (Beta-secretase 1 [5]): 40 nM
- Ki (Beta-secretase 2): 1700 nM

Structure (SMILES): NC1=N[C@](c2ccnc(C(F)(F)F)c2)(c2ccc(F)c(-c3cncnc3)c2)c2cccc(F)c21
- Activity (Mus musculus [18]): 114 nM
- Activity (Mus musculus [19]): Active
- Cp(f) (Plasma [20]): 795 nM
- IC50 (Beta-secretase 1 [5]): 204 nM
- hepatocyte CLint (in vitro [6]): 10 µL/min/1e6 cells
- logD (physchem [7]): 3
- Activity (Mus musculus [21]): 50%
- Activity (Mus musculus [22]): Active
- Drug uptake(free) (Brain [23]): 406 nM
- fraction unbound [24]: 0.044
- Papp A→B at 1 h, 10 µM (in vitro [17]): 30 ×10⁻⁶ cm/s
- fraction unbound [25]: 0.025

Structure (SMILES): COc1ccc(C2(c3cccc(-c4cncnc4)c3)N=C(N)c3c(F)cccc32)cc1 (stereo not given)
- IC50 (Beta-secretase 1 [15]): 12.5 nM
- IC50 (Beta-secretase 1 [16]): 135 nM

Structure (SMILES): CC#Cc1cncc(-c2cccc([C@@]3(c4cc(C)c(=O)n(CC)c4)N=C(N)c4c(F)cc(F)cc43)c2)c1
- IC50 (Beta-secretase 1 [15]): 0.38 nM
- IC50 (Beta-secretase 1 [16]): 2.59 nM

Structure (SMILES): NC1=NC(c2ccncc2)(c2cccc(-c3cncnc3)c2)c2ccccc21 (stereo not given)
- pKa (physchem [1]): 8.4
- IC50 [26]: 16000 nM
- IC50 (Beta-secretase 1 [15]): 90.3 nM
- hepatocyte CLint (in vitro [6]): 11.7 µL/min/1e6 cells
- logD (physchem [7]): 0.7
- Papp A→B at 1 h, 10 µM (in vitro [17]): 3.4 ×10⁻⁶ cm/s
- efflux ratio at 1 h, 10 µM (in vitro [27]): 12

Structure (SMILES): N#Cc1cncc(-c2cccc(C3(c4ccnc(C(F)(F)F)c4)N=C(N)c4c(F)cccc43)c2)c1 (stereo not given)
- IC50 [26]: 1700 nM
- IC50 (Beta-secretase 1 [15]): 29.9 nM
- hepatocyte CLint (in vitro [6]): 5.2 µL/min/1e6 cells
- logD (physchem [7]): 3.7
- IC50 (Beta-secretase 1 [16]): 253 nM
- Papp A→B at 1 h, 10 µM (in vitro [17]): 16 ×10⁻⁶ cm/s
- efflux ratio at 1 h, 10 µM (in vitro [27]): 0.8

Structure (SMILES): NC1=NC(c2cccc(-c3cncnc3)c2)(c2ccnc(C(F)(F)F)c2)c2ccccc21 (stereo not given)
- IC50 (Beta-secretase 1 [15]): 2.1 nM
- IC50 (Beta-secretase 1 [16]): 134 nM

Structure (SMILES): NC1=NC(c2cccc(-c3cncnc3)c2)(c2ccnc(C(F)F)c2)c2cccc(F)c21 (racemic)
- pKa (physchem [1]): 6.8
- hepatocyte CLint (in vitro [6]): 27.5 µL/min/1e6 cells
- logD (physchem [7]): 2

Structure (SMILES): Cc1cc(C2(c3cccc(-c4cncnc4)c3)N=C(N)c3c(F)cccc32)cn(C)c1=O (stereo not given)
- IC50 (Beta-secretase 1 [15]): 11.4 nM
- IC50 (Beta-secretase 1 [5]): 30 nM
- IC50 (Beta-secretase 1 [16]): 60.8 nM
- Ki (Beta-secretase 2): 740 nM

Structure (SMILES): NC1=NC(c2ccnc(C(F)(F)F)c2)(c2ccc(F)c(-c3cncnc3)c2)c2cccc(F)c21 (racemic)
- pKa (physchem [1]): 6.4
- hepatocyte CLint (in vitro [6]): 6.9 µL/min/1e6 cells
- logD (physchem [7]): 3
- Papp A→B at 1 h, 10 µM (in vitro [17]): 25 ×10⁻⁶ cm/s

Structure (SMILES): COc1cc(C2(c3cccc(-c4cncnc4)c3)N=C(N)c3c(F)cccc32)ccn1 (stereo not given)
- IC50 (Beta-secretase 1 [15]): 21.5 nM

Structure (SMILES): NC1=N[C@@](c2cccc(-c3cncnc3)c2)(c2ccnc(C(F)F)c2)c2cc(F)cc(F)c21
- IC50 (Beta-secretase 1 [15]): 8.64 nM
- IC50 (Beta-secretase 1 [5]): 53 nM
- IC50 (Beta-secretase 1 [16]): 36.2 nM
- Ki (Beta-secretase 2): 770 nM

Structure (SMILES): NC1=NC(c2cccc(-c3cncnc3)c2)(c2ccnc(C(F)(F)F)c2)c2cccc(F)c21 (stereo not given)
- IC50 (Beta-secretase 1 [15]): 43.1 nM
- IC50 (Beta-secretase 1 [5]): 436 nM

Structure (SMILES): CCn1cc([C@]2(c3cccc(C#CC4CC4)c3)N=C(N)c3c(F)cccc32)cc(C)c1=O
- IC50 (Beta-secretase 1 [15]): 0.76 nM
- IC50 (Beta-secretase 1 [5]): 3.4 nM
- IC50 (Beta-secretase 1 [16]): 6.08 nM
- Ki (Beta-secretase 2): 78 nM

Structure (SMILES): CCn1cc([C@]2(c3cccc(NC(=O)c4ccc(Cl)cn4)c3)N=C(N)c3c(F)cccc32)cc(C)c1=O
- IC50 (Beta-secretase 1 [15]): 0.15 nM
- IC50 (Beta-secretase 1 [16]): 2.49 nM

Structure (SMILES): CCn1cc(C2(c3cccc(-c4cncc(F)c4)c3)N=C(N)c3c(F)cccc32)cc(C)c1=O (stereo not given)
- IC50 (Beta-secretase 1 [15]): 3.98 nM

Structure (SMILES): CCn1cc(C2(c3cccc(-c4cncc(C#N)c4)c3)N=C(N)c3c(F)cccc32)cc(C)c1=O (stereo not given)
- IC50 (Beta-secretase 1 [15]): 1.84 nM
- IC50 (Beta-secretase 1 [16]): 8.26 nM
